Laboratory results: ChEMBL document CHEMBL1201862, “PubChem BioAssay data set” (2004)
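These data come from cells grown in 96-well plates and exposed to compound for 48 hours at five concentrations. Abbreviation: GI50, concentration required for 50% inhibition of growth.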 Activity calls are given as the source filed them. Rule as the data show it: active = GI50 up to about 1.1 µM and inactive = higher.

Experiments:
Experiment in all cases: NCI tumour cell line growth inhibition, 48 h
A549 = tested on: A549
ACHN = tested on: ACHN
BT-549 = tested on: BT-549
COLO 205 = tested on: COLO 205
DU-145 = tested on: DU-145
HCT-15 = tested on: HCT-15
HL-60 = tested on: HL-60
HOP-92 = tested on: HOP-92
KM12 = tested on: KM12
MDA-MB-231 = tested on: MDA-MB-231
NCI-H23 = tested on: NCI-H23
NCI-H522 = tested on: NCI-H522
OVCAR-4 = tested on: OVCAR-4
RXF 393 = tested on: RXF 393
SF-539 = tested on: SF-539
SK-MEL-5 = tested on: SK-MEL-5
SK-OV-3 = tested on: SK-OV-3
T47D = tested on: T47D
TK-10 = tested on: TK-10
U-251 = tested on: U-251

SMILES	GI50 (A549)	GI50 (ACHN)	GI50 (BT-549)	GI50 (COLO 205)	GI50 (DU-145)	GI50 (HCT-15)	GI50 (HL-60)	GI50 (HOP-92)	GI50 (KM12)	GI50 (MDA-MB-231)	GI50 (NCI-H23)	GI50 (NCI-H522)	GI50 (OVCAR-4)	GI50 (RXF 393)	GI50 (SF-539)	GI50 (SK-MEL-5)	GI50 (SK-OV-3)	GI50 (T47D)	GI50 (TK-10)	GI50 (U-251)
COc1ccc(C(=O)C#Cc2cn(C3CC(O)C(CO)O3)c(=O)[nH]c2=O)cc1 (centres undefined)	> 100 µM (inactive)	> 100 µM (inactive)	20.2 µM (inactive)	33.3 µM (inactive)	> 100 µM (inactive)	> 100 µM	> 10 µM (inactive)	21.7 µM (inactive)	> 100 µM (inactive)	> 100 µM (inactive)	> 100 µM (inactive)	11.9 µM (inactive)	48.6 µM (inactive)	52.2 µM (inactive)	19.3 µM (inactive)	28.4 µM (inactive)	> 100 µM (inactive)	19.2 µM (inactive)	78.3 µM (inactive)	> 100 µM (inactive)
O=C1c2cc([N+](=O)[O-])cnc2S(=O)(=O)N1c1ccc(Oc2ccccc2)cc1	> 100 µM (inactive)	> 100 µM (inactive)	> 100 µM (inactive)	> 100 µM (inactive)	> 100 µM (inactive)	> 100 µM	> 100 µM (inactive)	> 100 µM (inactive)	> 100 µM (inactive)	> 100 µM (inactive)	> 100 µM (inactive)	> 100 µM (inactive)	> 100 µM (inactive)	34.2 µM (inactive)			> 100 µM (inactive)	> 100 µM (inactive)	> 100 µM (inactive)	> 100 µM (inactive)
O=C(NCCN1C(=O)CN=C(c2ccc(Cl)cc2)c2cc(Cl)ccc21)OCc1ccccc1	10.6 µM (inactive)	16.3 µM (inactive)	15.6 µM (inactive)	19.8 µM (inactive)	18.2 µM (inactive)	13.4 µM	10.1 µM (inactive)	14.7 µM (inactive)	15.3 µM (inactive)	14.8 µM (inactive)	14.1 µM (inactive)	15.5 µM (inactive)	8.71 µM (inactive)	10.8 µM (inactive)	18.9 µM (inactive)	15.2 µM (inactive)	52.2 µM (inactive)	30.8 µM (inactive)	16.7 µM (inactive)	15.2 µM (inactive)
C[C@H](CCC1=NCCN1)[C@H]1CC[C@H]2[C@@H]3[C@H](O)C[C@@H]4C[C@H](O)CC[C@]4(C)[C@H]3CC[C@]12C		16.4 µM (inactive)	12.3 µM (inactive)	8.57 µM (inactive)	14.3 µM (inactive)	16.5 µM	> 10 µM (inactive)	8.89 µM (inactive)	14.6 µM (inactive)	16.7 µM (inactive)	14.3 µM (inactive)	14.7 µM (inactive)	14.9 µM (inactive)	15.8 µM (inactive)	12.9 µM (inactive)	11.8 µM (inactive)	19.1 µM (inactive)	14.8 µM (inactive)	13.8 µM (inactive)	12.8 µM (inactive)
O=C(O)C1=C/C(=C(/c2ccccc2)c2cc(C(=O)O)c(O)c3ccccc23)c2ccccc2C1=O	> 100 µM (inactive)	> 100 µM (inactive)	> 100 µM (inactive)	> 100 µM (inactive)	> 100 µM (inactive)	> 100 µM	< 0.01 µM (active)	> 100 µM (inactive)	> 100 µM (inactive)	> 100 µM (inactive)	> 100 µM (inactive)	> 100 µM (inactive)	> 100 µM (inactive)	> 100 µM (inactive)	> 100 µM (inactive)	> 100 µM (inactive)	> 100 µM (inactive)	> 100 µM (inactive)	> 100 µM (inactive)	> 100 µM (inactive)
O=[N+]([O-])c1cc2ccc(N(CCO)CCO)nc2nc1N(CCO)CCO	> 100 µM (inactive)	> 100 µM (inactive)	> 100 µM (inactive)	> 100 µM (inactive)	> 100 µM (inactive)	> 100 µM	> 100 µM (inactive)	> 100 µM (inactive)	> 100 µM (inactive)	> 100 µM (inactive)	> 100 µM (inactive)	> 100 µM (inactive)	> 100 µM (inactive)	> 100 µM (inactive)	> 100 µM (inactive)	> 100 µM (inactive)	> 100 µM (inactive)	> 100 µM (inactive)	> 100 µM (inactive)	> 100 µM (inactive)
O=C(NCc1ccccc1)c1cc2ccccc2o/c1=N\c1cccc(C(F)(F)F)c1	47.1 µM (inactive)	46.3 µM (inactive)	> 100 µM (inactive)	29.3 µM (inactive)	> 100 µM (inactive)	36.9 µM	20.5 µM (inactive)	75.2 µM (inactive)	48.6 µM (inactive)	75.7 µM (inactive)	57.7 µM (inactive)	39 µM (inactive)	69.7 µM (inactive)	78 µM (inactive)		26.4 µM (inactive)	> 100 µM (inactive)	28.1 µM (inactive)	50.4 µM (inactive)	71 µM (inactive)
COC(=O)C1=C(C)NC(CF)=C(C(=O)OC)C1c1cccc2c(=O)c3ccccc3oc12 (centres undefined)	9.46 µM (inactive)	15.1 µM (inactive)	15.8 µM (inactive)	4.39 µM (inactive)	90.4 µM (inactive)	4.79 µM	4.65 µM (inactive)	3.88 µM (inactive)	5.51 µM (inactive)	4.74 µM (inactive)	36.8 µM (inactive)	6.31 µM (inactive)	10.2 µM (inactive)	11.7 µM (inactive)	24.3 µM (inactive)	5.06 µM (inactive)	26.5 µM (inactive)	24.3 µM (inactive)	35.8 µM (inactive)	
COc1cc(S(=O)(=O)Nc2nc(-c3ccc(N4C(=O)/C(=C/c5ccccc5)N=C4c4ccccc4)cc3)cs2)ccc1Cl	> 100 µM (inactive)	> 100 µM (inactive)	38.5 µM (inactive)	40 µM (inactive)	> 100 µM (inactive)	> 100 µM		34.4 µM (inactive)	50.6 µM (inactive)	21.3 µM (inactive)	25.2 µM (inactive)	35.3 µM (inactive)	31.3 µM (inactive)	32.1 µM (inactive)	41.1 µM (inactive)	26.9 µM (inactive)	> 100 µM (inactive)	42.2 µM (inactive)	> 100 µM (inactive)	36 µM (inactive)
CC(=O)O[C@@H]1[C@H]2[C@@H](OC(=O)c3ccccc3)[C@@H](C)C[C@]2(O)[C@H](OC(C)=O)[C@@]2(C)[C@@H]3CC(C)(C)C(=O)[C@]3(OC(C)=O)C[C@@]12C		> 25 µM (inactive)	> 25 µM (inactive)	7.05 µM (inactive)	> 25 µM (inactive)	> 25 µM	1.35 µM (inactive)	8.24 µM (inactive)	> 25 µM (inactive)	> 25 µM (inactive)	> 25 µM (inactive)	> 25 µM (inactive)	> 25 µM (inactive)	> 25 µM (inactive)	13.2 µM (inactive)	18.7 µM (inactive)	> 25 µM (inactive)	> 25 µM (inactive)	> 25 µM (inactive)	> 25 µM (inactive)
Fc1cccc(F)c1C(Nc1nncs1)Nc1nncs1	> 100 µM (inactive)	> 100 µM (inactive)	> 100 µM (inactive)	> 100 µM (inactive)	> 100 µM (inactive)	91.2 µM		> 100 µM (inactive)	> 100 µM (inactive)	> 100 µM (inactive)	> 100 µM (inactive)	> 100 µM (inactive)	> 100 µM (inactive)	> 100 µM (inactive)	49 µM (inactive)	> 100 µM (inactive)	> 100 µM (inactive)	> 100 µM (inactive)	> 100 µM (inactive)	> 100 µM (inactive)
CCCCOP(=O)(OCCCC)/C(C#N)=C/c1ccc(C)o1	47.2 µM (inactive)	42.2 µM (inactive)	19.1 µM (inactive)	31.9 µM (inactive)	> 100 µM (inactive)	38.7 µM		29.6 µM (inactive)	42.4 µM (inactive)	> 100 µM (inactive)	30.4 µM (inactive)	58.9 µM (inactive)	46.8 µM (inactive)	26.7 µM (inactive)	61.1 µM (inactive)	33.7 µM (inactive)	81.5 µM (inactive)	51.5 µM (inactive)	> 100 µM (inactive)	93.3 µM (inactive)
COc1ccc(C(=O)N(C(=S)OCCOc2ccccc2)c2ccccc2)cc1	31.1 µM (inactive)	44.9 µM (inactive)	49.9 µM (inactive)	30.5 µM (inactive)	37.1 µM (inactive)	44.2 µM	20.2 µM (inactive)	20 µM (inactive)	31.3 µM (inactive)	86.1 µM (inactive)	32.4 µM (inactive)	23.7 µM (inactive)	24.5 µM (inactive)	26.5 µM (inactive)	40.3 µM (inactive)		52.7 µM (inactive)	19.9 µM (inactive)	61 µM (inactive)	46.1 µM (inactive)
O=C(/C=C/c1ccccc1)c1cc(Br)ccc1O	24 µM (inactive)	15.1 µM (inactive)	16 µM (inactive)	17.3 µM (inactive)	14.9 µM (inactive)	14.1 µM	4.06 µM (inactive)	3.15 µM (inactive)	12 µM (inactive)	18 µM (inactive)	16 µM (inactive)	12.5 µM (inactive)	15.1 µM (inactive)	18.8 µM (inactive)		15.3 µM (inactive)	20 µM (inactive)	8.45 µM (inactive)	17.6 µM (inactive)	15.1 µM (inactive)
